This note sets out measurements from patent publication US7388025B2, “3-aryl-isoxazole-4-carbonyl-benzofuran derivatives” (Hoffman-La Roche Inc., priority 2005, dated 2008).

For this assay, the target named is T1, human GABA A receptor α5β3γ2 (Homo sapiens, UniProt P18507+P31644).
T1 construct: expressed in transfected cells; host or cells: HEK293 cells, transiently transfected; membranes prepared from them
Nature of the assay: [3H]flumazenil competition binding, HEK293 cells expressing human GABA A α5β3γ2 receptors. Particulars: human α5β3γ2 in HEK293 (transiently transfected), 0.5 nM [3H]flumazenil, mean of two determinations; read-out: Ki[nM] hα5. As for the experimental part:
Membrane Preparation and Binding Assay
The affinity of compounds at GABA A receptor subtypes was measured by competition for [3H]flumazenil (85 Ci/mmol; Roche) binding to HEK293 cells expressing rat (stably transfected) or human (transiently transfected) receptors of composition α1β3γ2, α2β3γ2, α3β3γ2 and α5β3γ2.
Cell pellets were suspended in Krebs-tris buffer (4.8 mM KCl, 1.2 mM CaCl2, 1.2 mM MgCl2, 120 mM NaCl, 15 mM Tris; pH 7.5; binding assay buffer), homogenized by polytron for ca. 20 sec on ice and centrifuged for 60 min at 4° C. (50000 g; Sorvall, rotor: SM24=20000 rpm). The cell pellets were resuspended in Krebs-tris buffer and homogenized by polytron for ca. 15 sec on ice. Protein was measured (Bradford method, Bio-Rad) and aliquots of 1 mL were prepared and stored at −80° C.
Radioligand binding assays were carried out in a volume of […] (96-well plates) which contained […] of cell memebranes, [3H]flumazenil at a concentration of 1 nM for α1, α2, α3 subunits and 0.5 nM for α5 subunits and the test compound in the range of […]. Nonspecific binding was defined by 10^−5 M diazepam and typically represented less than 5% of the total binding. Assays were incubated to equilibrium for 1 hour at 4° C. and harvested onto GF/C uni-filters (Packard) by filtration using a Packard harvester and washing with ice-cold wash buffer (50 mM Tris; pH 7.5). After drying, filter-retained radioactivity was detected by liquid scintillation counting. Ki values were calculated using Excel-Fit (Microsoft) and are the means of two determinations.

The term Ki denotes a measure of affinity in units of concentration, obtained from inhibition or displacement. As to `COc1ccc2oc(C(=O)c3c(-c4ccc(Br)cc4)noc3C)cc2c1` [Example 43, [3-(4-Bromo-phenyl)-5-methyl-isoxazol-4-yl]-(5-methoxy-benzofuran-2-yl)-methanone], the inhibition constant Ki was determined as 2.9 nM.

Consider `COc1cccc2oc(C(=O)c3c(-c4ccc(Br)cc4)noc3C)cc12` [Example 44, [3-(4-Bromo-phenyl)-5-methyl-isoxazol-4-yl]-(4-methoxy-benzofuran-2-yl)-methanone], for which the Ki stood at 4.8 nM.

“(5-Methoxy-benzofuran-2-yl)-(5-methyl-3-phenyl-isoxazol-4-yl)-methanone [Example 21]”: the Ki was determined as 1.4 nM.
